Measurements from patent US6946466B2, “Aromatic sulfonamides as peroxynitrite-rearrangement catalysts” (Schering AG, priority 2003, dated 2005).

What was measured:
[1] = Kinetics of the conversion of peroxynitrite into nitrate by UV spectrometry (stopped flow, 301 nm); type: biochemical; conditions: peroxynitrite rearrangement relative to spontaneous decomposition without catalyst; catalyst added in one-tenth the stoichiometric amount; UV 301 nm
Description: Measurement of the Kinetics of the Conversion of Peroxynitrite into Nitrate by UV Spectrometry
The following are used: a UV spectrometer • a stopped flow device with slotted-on cuvette laboratory apparatus for volumetric work reagents (buffers, peroxynitrite solution, catalysts)
The peroxynitrite content of the concentrated peroxynitrite solution is determined. A molar extinction coefficient of ε=1 670 is used as basis. The solution is diluted with water to reach an absorption of about 1.6 at the observation wavelength of 301 nm. The pH of the stock solution produced in this way should not fall below 11.
A solution of the catalyst to be investigated is prepared in phosphate buffer appropriate for the peroxynitrite concentration set, in such a way that, taking account of the given conditions in the stopped flow device, the desired amounts of catalyst solution and peroxynitrite can be brought together for reaction. The buffer of the catalyst solution must have sufficient capacity for it to be possible for the peroxynitrite solution, which is still strongly alkaline, to be adjusted to, and maintained at, the desired pH. The catalysts are added in one-tenth the stoichiometric amount (FIG. 1).
The metering syringes of the stopped flow system are charged with the two solutions and used to charge the cuvette which is present in the UV spectrometer. The absorptions at 301 nm are measured simultaneously. The rearrangement of peroxynitrite to nitrate results in the decrease in the absorption, which assumes a constant value after some time. The rearrangement is complete at this time, and the data recording is stopped.
The measured data are analyzed, and the peroxynitrite concentration can be calculated from the characteristic kinetic data of the plot resulting therefrom. […] In order to take account of the spontaneous decomposition of peroxynitrite, for each peroxynitrite preparation used initially the decomposition behavior of the peroxynitrite solution is found on addition of the buffer without catalyst content, and the relation between the characteristic data thereof and those obtained from a measurement with catalyst is found. [formula]

[2] = DHR oxidation assay (oxidation of dihydrorhodamine to rhodamine by peroxynitrite); type: biochemical; conditions: rhodamine fluorescence 485/520 nm, neutral pH
Description: Oxidation of Dihydrorhodamine to Rhodamine
The concentration of peroxynitrite is determined by reaction with dihydrorhodamine (DHR) to give rhodamine. The rhodamine fluorescence emission is measured at 520 nm after excitation with light of a wavelength of 485 nm. Catalytic conversion of peroxynitrite by a test substance leads to a decrease in the peroxynitrite concentration and thus also to a decrease in the rhodamine fluorescence, because less DHR can be converted into rhodamine. The search for peroxynitrite-degrading catalysts is carried out at neutral pH. Peroxynitrite is stable for only a few seconds at neutral pH. It is therefore necessary for peroxynitrite to be kept alkaline until contacted with the test substance and DHR as detection reagent. The search for catalysts takes place by rapid mixing of the following components:
10 μl of 10 μM DHR; • 100 μm diethylenetriaminepentaacetic acid in 75 mM Na phosphate buffer at pH 5.6
5 μl of peroxynitrite in 9 mM NaOH
0.75 μl test substance in 30% DMSO/H2O
The measurement takes place in a standard microtiter plate fluorescence measuring apparatus

[3] = tested on: primary neuronal cultures from neonatal rat cerebellum; assay: SIN-1 damage assay with primary neuronal cultures from neonatal rat cerebellum (Cytotoxicity assay); type: cell-based; conditions: protection against SIN-1 damage, test substance 1 h before SIN-1, Alamar blue readout, read-out: Cytotoxicity assay ED50
Source text: SIN-1 Damage Assay with Primary Neuronal Cultures from Neonatal Rat Cerebellum
A primary culture of cells from neonatal rat cerebellum is set up for in vitro testing of substances for neuroprotection against damage induced by peroxy-nitrite. The measurement of cell death or survival of neurons in this culture takes place indirectly through a measurement of the conversion of the dye Alamar blue into its reduced fluorescent form. The peroxynitrite donor SIN-1 (3-morpholinosydnonimine) is used for the damage.
To obtain the cells, Wistar rats (P8) are sacrificed by decapitation, the cerebella are obtained, the meninges are removed from the cerebellum (HBSS (GIBCO, 14025-050) 4° C.), cut up and transferred into a 15 ml Falcon tube, the supernatant is aspirated off, and then the cerebella are trypsinized by adding 500 μl of trypsin/EDTA solution (GIBCO #2530-054)/cerebellum. After incubation (20 min, 37° C.), the trypsinized cerebella are washed 3× with 10 ml of HBSS. This is followed by tritration by addition of 500 μl of 0.05% strength DNAsel (BOEHRINGER MANNHEIM, #14953000) per cerebellum. Using a 5 ml pipette, then a flame-polished Pasteur pipette and finally (if necessary) a drawn-out flame-polished Pasteur pipette, the cells are isolated and mixed with 10 ml of complete medium (100 ml of Neurobasal (GIBCO #21103-049), 1 ml of B27 supplement (GIBCO #17504-044), 0.4 ml of pen/strep (10 000 IU/ml/10 000 UG/ml) (GIBCO #15140-160), 0.8 ml of KCl stock solution (MERCK, 1.04936.0500), 1 ml of L-glutamine (100×-200 mM) (GIBCO #15140-106). The isolated cells are then centrifuged (10 min at 600 rpm), washed 1× with complete medium and resuspended in 20 ml of complete medium, counted and diluted to 2×10^6 ml. 100 μl of complete medium are introduced into each well of a 96-well microtiter plate, and 100 μl of cell suspension are added (=day 1 in vitro). The microtiter plates are previously coated in the following way: 50 μl of poly-L-lysine (MW 70-105 kD) (SIGMA #P-6282) are applied to each well, and the plates are then incubated in an incubator for about 90 min. Before the cells are plated out, the solution is aspirated off again and washed 2× with HBSS and with sterile double-distilled water. 24 h after plating out, the cells are damaged by addition of SIN-1. Test substances are applied 1 h before addition of SIN-1 (single concentration of 10 or 30 μm, or as concentration series, CALBIOCHEM, 567028). Cell function is measured on day 2 (day2 in vitro) with Alamar blue (10 μl/well) (BIOSOURCE INT., DAL1100). Incubation for 3 hours is followed by measurement in a fluorescence reader (Victor, Wallac, extinction 544 nm/emission 590 nm). IC50 values are calculated by the Excel plug-in XLfit.

| Structure (SMILES) | Rate constant [1] | IC50 [2] [nM] | EC50 [3] [µM] |
| --- | --- | --- | --- |
| Cc1noc(C)c1S(=O)(=O)Nc1ccc(N2CCCC2)cc1 [Example 1, 3,5-dimethylisoxazole-4-sulfonic acid 4-pyrrolidin-1-ylphenylamide] | 1.1 | 1100 | 4.4 |
| Cc1noc(C)c1S(=O)(=O)Nc1ccc(N2CCCC2)cc1C(F)(F)F [Example 2, 3,5-dimethylisoxazole-4-sulfonic acid 4-pyrrolidin-1-yl-2-trifluoromethylphenylamide] | 1.3 | 2400 | 6.6 |
| Cc1noc(C)c1S(=O)(=O)Nc1ccc(N2CCCCC2)cc1 [Example 3, 3,5-dimethylisoxazole-4-sulfonic acid 4-piperidin-1-ylphenylamide] | 1.4 | 950 | 5.3 |
| O=S(=O)(Nc1ccc(N2CCCCC2)cc1)c1cccc2cccnc12 [Example 4, quinoline-8-sulfonic acid 4-piperidin-1-ylphenylamide] | 1.4 | 1100 | 8.7 |
| COc1cc(N2CCCC2)ccc1NS(=O)(=O)c1cccs1 [Example 5, thiophene-2-sulfonic acid 2-methoxy-4-pyrrolidin-1-ylphenylamide] | 1.9 | 8100 | 5.9 |
| O=S(=O)(Nc1ccc(N2CCCC2)cc1)c1cccc2cccnc12 [Example 6, quinoline-8-sulfonic acid 4-pyrrolidin-1-ylphenylamide] | 1.2 | 1500 | 5.2 |
| CN1CCN(c2ccc(NS(=O)(=O)c3cccs3)cc2)CC1 [Example 7, thiophene-2-sulfonic acid 4-(4-methyl-piperazin-1-yl)phenylamide] | 1.3 | 1900 | 5.7 |
| CN(C)c1ccc(NS(=O)(=O)c2cccs2)c([N+](=O)[O-])c1 [Example 8, thiophene-2-sulfonic acid 4-dimethylamino-2-nitrophenylamide] | 1.6 | 1600 | 6.4 |
| Cc1noc(C)c1S(=O)(=O)Nc1ccc(N(C)C)cc1[N+](=O)[O-] [Example 9, 3,5-dimethylisoxazole-4-sulfonic acid 4-dimethylamino-2-nitrophenylamide] | 1.6 | 2000 | 8.6 |
